From patent publication US8889680B2, “Treatment or prevention of fungal infections with PDK1 inhibitors” (priority 2010, dated 2014)

Columns and labels:
C. glabrata = assay: Antifungal susceptibility (microdilution MIC), C. glabrata; assay type: cell-based, Candida glabrata
Procedure: (§1) The antifungal activity of protein kinase inhibitors was determined using the Clinical and Laboratory Science Institute microdilution protocol M-27A2. Biofilm antifungal activity was determined using the protocol of Pierce et al. and is reported as MIC50S (Pierce et al., Nat. Protoc. 3:1494-1500 (2008)). Disk diffusion assays were performed as described previously (Roelants et al., Microbiology 150:3289-304 (2004)).
(FIG. 3A). […] Since the echinocandin class of cell wall-targeted 1,3-β-glucan synthase inhibitors is not active against C. neoformans, this represents one of the few cell wall-targeted molecules with activity against this important pathogen.

C. albicans = assay: Checkerboard interaction assay (FIC); assay type: cell-based, Candida albicans
Procedure: This assay allows one to compare the activity of a molecule alone and in combination with another molecule by generating a fractional inhibitory concentration (FIC). FIC for two drugs (A & B) is calculated as follows: […]. FIC values less than 0.5 are considered synergistic; between 0.5 and 1 are additive; between 1-2 are indifferent; and above 2 are antagonistic. […] Therefore, KP-372-1 is not synergistic with either agent.

[1] = system: C. neoformans PKH2-01 and PKH2-02 deletion mutants; assay: Disk diffusion assay, C. neoformans mutants; assay type: cell-based, Cryptococcus neoformans; settings: 30° C.
Procedure: Plates were incubated at 30° C. for 3 days prior to photography.
as §1

[2] = system: C. albicans clinical reference strain SC5314; assay: Adenylate kinase (AK) release assay of yeast cell lysis; assay type: cell-based, Candida albicans; parameters: dose or concentration left out as unconfirmed; settings: extracellular AK activity relative to DMSO-treated cells
Procedure: AK assays were performed according to a recently published protocol (Didone et al., Nat. Protocol. 5:1107-14 (2010)) using the 96-well plate version using the Toxi-Light Assay kit (Lonza; Basel, Switzerland). Luminescence was measured using a SpectraMax plate reader (Molecular Devices; Sunnyvale, Calif.). […] To identify PKIs that disrupt yeast cell wall integrity, a four-part screening strategy as outlined in FIG. 1A was designed. The primary screen in the approach detects molecules that cause yeast cells to lyse, a characteristic phenotype of yeast cell wall damage, by use of an assay that detects the release of adenylate kinase (AK) to the growth medium as a reporter of yeast cell lysis. […] Last, to select PKIs specific for the CWI signaling pathway, the set of hits were tested for their ability to block the activation of a transcriptional reporter of the CWI-signaling pathway. To rapidly survey a sample of well-characterized PKIs, the commercially available InhibitorSelect collection, a library of 80 PKIs with diverse mechanistic and structural characteristics, was utilized. C. albicans clinical reference strain SC5314 was screened against the InhibitorSelect library for molecules that caused a release of AK into the growth medium.

SMILES: O=C1c2ccccc2-c2nc3nnnn3nc21.O=C1c2ccccc2-c2nn3nnnc3nc21 [KP-372-1]
- antifungal activity (in words) (C. glabrata): highly active
- FIC (fractional inhibitory concentration) (C. albicans; combination with caspofungin): 0.5
- FIC (fractional inhibitory concentration) (C. albicans; combination with fluconazole): 1.0
- sensitivity versus wild type ([1]; C. neoformans PKH2-01 mutant): slightly more sensitive
- sensitivity versus wild type ([1]; C. neoformans PKH2-02 mutant): significantly more sensitive
- Fold increase in AK release [2]: 4 Fold
